Experimental data taken from US20120301895A1, “METHODS OF MODULATING BINDING OF SON OF SEVENLESS TO PHOSPHATIDIC ACID AND IDENTIFYING COMPOUNDS THAT MODULATE SUCH BINDING” (THE RESEARCH FOUNDATION OF STATE UNIVERSITY OF NEW YORK, priority 2007, published 2012).

Test system: Calu-1 cells
Assay: Cell viability and PARP cleavage in Calu-1 cells
Assay type: cell-based, human
Conditions: honokiol 20 μM, 0.5% serum
Description: In FIG. 17A, T24 and Calu1 cells (obtained from the American Type Culture Collection) were plated in DMEM containing 10% serum for 48 hr and then shifted to either 10% serum or 0.5% serum overnight as indicated. Honokiol (20 μM) or control ethanol was then added for 4 hr as indicated. [^3H]-Myristate was added with the honokiol. After 4 hr, BtOH (0.7%) was added for 20 min, at which time the cells were harvested and the level of phosphatidyl-BtOH (P-Bt) was determined as in FIGS. 12A-C. The experiments shown are representative of at least two independent experiments. In FIG. 17B, T24 and Calu-1 cells were plated in DMEM with 10% serum for 48 hr then changed to DMEM containing either 10% or 0.5% serum overnight as indicated. Honokiol (20 μM) or control ethanol was then added either at the time of changing media (24 hr), or 4 hr before harvesting as in FIGS. 14A-E, at which time the cells were examined for cell viability or PARD cleavage. […]
Cell viability was determined by trypan blue exclusion. […] After 10 min, trypan blue uptake (dead cells) was determined by counting on a hemocytometer. Apoptosis was evaluated by examination of cleavage of the caspase 3 substrate PARP as described previously (Chen et al., “Alternative Phospholipase D/mTOR Survival Signal in Human Breast Cancer Cells,” Oncogene 24:672-9 (2005), which is hereby incorporated by reference in its entirety). […]

C=CCc1ccc(O)c(-c2ccc(O)c(CC=C)c2)c1 [honokiol, Honokiol]
PARP cleavage: induced
cell death: induced
